Patent US20260138961A1, “MODULATORS OF MITOCHONDRIAL DNA REPLICATION” (Pretzel Therapeutics, Inc., priority 2022, published 2026)

Molecular target: T1, POLγA:G848S (Homo sapiens, UniProt P54098, G848S)
T1 sequence (P54098 1-1239 G848S): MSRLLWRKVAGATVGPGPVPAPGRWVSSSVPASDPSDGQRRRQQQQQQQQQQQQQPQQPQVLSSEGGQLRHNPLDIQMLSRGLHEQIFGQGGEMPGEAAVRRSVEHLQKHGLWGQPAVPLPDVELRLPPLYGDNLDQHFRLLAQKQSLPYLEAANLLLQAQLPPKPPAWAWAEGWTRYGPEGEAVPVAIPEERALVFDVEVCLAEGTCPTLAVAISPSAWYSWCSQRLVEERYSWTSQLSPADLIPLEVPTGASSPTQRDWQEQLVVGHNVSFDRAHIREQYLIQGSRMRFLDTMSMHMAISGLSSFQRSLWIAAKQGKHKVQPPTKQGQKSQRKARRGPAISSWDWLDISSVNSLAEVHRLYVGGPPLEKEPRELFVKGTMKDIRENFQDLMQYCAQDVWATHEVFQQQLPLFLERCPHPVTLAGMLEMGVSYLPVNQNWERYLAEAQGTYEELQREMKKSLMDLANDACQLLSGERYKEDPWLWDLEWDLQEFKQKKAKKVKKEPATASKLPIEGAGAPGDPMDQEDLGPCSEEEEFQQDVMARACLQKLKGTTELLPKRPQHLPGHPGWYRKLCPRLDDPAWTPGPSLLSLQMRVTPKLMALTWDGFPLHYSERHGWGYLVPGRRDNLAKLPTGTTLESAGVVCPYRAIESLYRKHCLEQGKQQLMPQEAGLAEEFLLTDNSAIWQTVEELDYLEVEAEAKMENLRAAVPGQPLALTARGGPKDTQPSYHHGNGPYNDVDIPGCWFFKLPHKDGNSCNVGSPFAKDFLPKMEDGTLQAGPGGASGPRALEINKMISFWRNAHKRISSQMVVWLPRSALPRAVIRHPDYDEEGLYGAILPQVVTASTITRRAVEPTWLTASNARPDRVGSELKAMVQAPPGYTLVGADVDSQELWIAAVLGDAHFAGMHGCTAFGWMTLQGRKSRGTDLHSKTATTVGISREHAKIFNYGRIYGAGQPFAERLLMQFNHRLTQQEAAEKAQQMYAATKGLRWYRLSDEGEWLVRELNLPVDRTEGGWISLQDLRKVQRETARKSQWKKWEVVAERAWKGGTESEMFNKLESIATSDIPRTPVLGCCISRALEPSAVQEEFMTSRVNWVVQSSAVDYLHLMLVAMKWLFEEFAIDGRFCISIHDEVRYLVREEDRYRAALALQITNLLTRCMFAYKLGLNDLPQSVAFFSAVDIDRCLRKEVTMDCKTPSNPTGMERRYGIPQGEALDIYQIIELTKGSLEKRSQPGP
T1 sequence (Q9UHN1 1-485 partner): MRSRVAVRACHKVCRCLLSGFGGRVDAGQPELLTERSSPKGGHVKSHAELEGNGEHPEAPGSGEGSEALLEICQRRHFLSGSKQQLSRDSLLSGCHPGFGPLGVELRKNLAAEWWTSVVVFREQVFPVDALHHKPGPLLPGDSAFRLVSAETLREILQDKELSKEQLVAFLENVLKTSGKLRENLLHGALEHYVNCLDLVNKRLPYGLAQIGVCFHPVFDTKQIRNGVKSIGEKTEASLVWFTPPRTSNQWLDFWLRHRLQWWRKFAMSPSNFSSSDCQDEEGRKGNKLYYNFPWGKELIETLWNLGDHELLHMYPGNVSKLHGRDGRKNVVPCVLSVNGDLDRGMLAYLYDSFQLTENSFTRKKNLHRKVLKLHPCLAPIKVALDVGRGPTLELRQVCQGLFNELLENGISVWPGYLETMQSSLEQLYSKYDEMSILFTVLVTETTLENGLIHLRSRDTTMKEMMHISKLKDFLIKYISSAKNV
Assay: DNA polymerization assay, POLγA:G848S mutant
Type: biochemical
Conditions: G848S AC50, stimulation of polymerase activity, primed M13mp18 ssDNA, 37° C. 2 hours
Description: DNA Polymerization Assay to Monitor Effects on Human Wildtype POLγ and Four Disease-Causing Mutant Variants of Human POLγ.
The ability of small molecules to stimulate the polymerase activity of POLγ was analyzed in a quantitative fluorescence SYBR Green I assay with fluorescence intensity (FI) readout.
In the presence of dNTPs, wild type human POLγ and mutant derivatives thereof were incubated with single-stranded, circular M13mp18 ssDNA hybridized to a short DNA oligonucleotide that functions as a primer for initiation of DNA synthesis. POLγ and mutant derivatives thereof will extend the primer and use the M13mp18 molecule as a template to synthesize long stretches of double-stranded DNA. SYBR Green I, which is a double-stranded DNA-binding dye, was used to quantify formation of double-stranded DNA in the reaction. When bound to double-stranded DNA, SYBR Green I fluorescence increases by up to 100-fold.
The assay was performed in the 384-well plate format. Upon addition of compounds, changes in double-stranded DNA synthesis activity can be monitored by following effects on fluorescent intensity.
The reactions also contained the accessory POLγB subunit, and the human mitochondrial single-stranded DNA binding protein (mtSSB).
The DNA template mixture used in the assay contained 0.5 nM primed M13 mp18 ssDNA, 400 nM mtSSB, 0.1 mM Tris-HCl (pH 8.0), 0.1 mM dNTP, 10 mM MgCl2, 0.1 mg/mL BSA, 1 mM TCEP solution, and 0.02% Triton X-100. The DNA template mixture for the wild type protein contained either 100 μM dNTP, 1 μM dNTP, or 0.1 μM dNTP, designated in Table 2 as 100 μM, 1 μM, and 0.1 μM, respectfully.
Microplates with compounds (0.1 μL in each well) to be tested in the assay were prepared from 10 mM compound stocks in 100% DMSO, and equal amounts of DMSO without any compound were added to positive and negative control wells.
The protein mixture was dispensed (5 μL into each well) into compound plates and incubated at 37° C. for 15 minutes. After incubation, 5 μL of the DNA template mixture was dispensed into each well. The plates were then incubated at 37° C. for 2 hours.
During incubation, a combined stop buffer and detection reagent solution was prepared. The buffer contained 25 mM EDTA (pH 8.0), 0.02% Triton X-100, and SYBR Green I [Invitrogen] diluted 10,000× (for fluorescent readout). EDTA will stop the enzymatic reaction by chelating magnesium ions.

AC50 [µM]	Structure (SMILES)
> 100	Cc1cc(S(=O)(=O)Nc2noc(-c3ccccc3)n2)c(C)cc1Cl [Example 142, 4-chloro-2,5-dimethyl-N-(5-phenyl-1,2,4-oxadiazol-3-yl)benzenesulfonamide]

Same assay, conditions: stimulation of polymerase activity, primed M13mp18 ssDNA, 37° C. 2 hours; read-out: G848S AC50

AC50 [µM]	Structure (SMILES)
> 100	O=S(=O)(Nc1csc(-c2ccccc2)n1)c1ccc(F)cc1Cl [Example 126, 2-chloro-4-fluoro-N-(2-phenylthiazol-4-yl)benzenesulfonamide]
9	CNC(=O)c1cnc(-c2cccc(NS(=O)(=O)c3cc(C)c(Cl)cc3C)c2)s1 [Example 93, 2-(3-((4-chloro-2,5-dimethylphenyl)sulfonamido)phenyl)-N-methylthiazole-5-carboxamide]
> 100	Cc1cc(S(=O)(=O)N[C@H]2CCCN(C(=O)[C@H]3CCCN3C)C2)c(C)cc1Cl [Example 95, 4-chloro-2,5-dimethyl-N-((S)-1-(methyl-D-prolyl)piperidin-3-yl)benzenesulfonamide]
26	Cc1cc(S(=O)(=O)Nc2cccc(C(=O)N(C)C)c2)c(C)cc1Cl [Example 12, 3-((4-chloro-2,5-dimethylphenyl)sulfonamido)-N,N-dimethylbenzamide]
> 100	Cc1cc(S(=O)(=O)N[C@@H]2CCCN(C(=O)[C@H]3CCCN3C)C2)c(C)cc1Cl [Example 100, 4-chloro-2,5-dimethyl-N-((R)-1-(methyl-D-prolyl)piperidin-3-yl)benzenesulfonamide]
> 100	O=S(=O)(Nc1csc(-c2ccccc2)n1)c1ccc(Cl)cc1Cl [Example 138, 2,4-dichloro-N-(2-phenylthiazol-4-yl)benzenesulfonamide]
3	Cc1cc(S(=O)(=O)Nc2cccc(-c3nccn3C)c2)c(C)cc1Cl [Example 19, 4-chloro-2,5-dimethyl-N-(3-(1-methyl-1H-imidazol-2-yl)phenyl)benzenesulfonamide]
> 100	O=S(=O)(Nc1csc(-c2ccccc2)n1)c1ccccn1 [Example 139, N-(2-phenylthiazol-4-yl)pyridine-2-sulfonamide]
> 100	Cc1cc(S(=O)(=O)N[C@@H]2CCCN(C(=O)c3ccccc3)C2)c(C)cc1Cl [Example 150, (R)-N-(1-benzoylpiperidin-3-yl)-4-chloro-2,5-dimethylbenzenesulfonamide]
3	Cc1cc(S(=O)(=O)Nc2cccc(C(=O)N3CCC[C@H]3C)c2)c(C)cc1Cl [Example 10, (R)-4-chloro-2,5-dimethyl-N-(3-(2-methylpyrrolidine-1-carbonyl)phenyl)benzenesulfonamide]
3	Cc1cc(S(=O)(=O)Nc2nsc(-c3ccccc3)n2)c(C)cc1Cl [Example 131, 4-chloro-2,5-dimethyl-N-(5-phenyl-1,2,4-thiadiazol-3-yl)benzenesulfonamide]
1	Cc1ccc(C)c(S(=O)(=O)Nc2csc(-c3ccccc3)n2)c1 [Example 134, 2,5-dimethyl-N-(2-phenylthiazol-4-yl)benzenesulfonamide]
> 100	O=S(=O)(Nc1csc(-c2ccccc2)n1)c1ccc(C(F)(F)F)cc1 [Example 127, N-(2-phenylthiazol-4-yl)-4-(trifluoromethyl)benzenesulfonamide]
> 100	Cc1cc(S(=O)(=O)Nc2csc(-c3ccccc3)n2)c(F)cc1Cl [Example 146, 4-chloro-2-fluoro-5-methyl-N-(2-phenylthiazol-4-yl)benzenesulfonamide]
> 100	Cc1cc(S(=O)(=O)Nc2cccc(C(=O)N3C[C@H](C)[C@@H](N)C3)c2)c(C)cc1Cl [Example 108, N-(3-((3R,4S)-3-amino-4-methylpyrrolidine-1-carbonyl)phenyl)-4-chloro-2,5-dimethylbenzenesulfonamide]
> 100	C[C@@H]1CCCN1C(=O)c1cccc(NS(=O)(=O)c2ccc(C(F)(F)F)cc2)c1 [Example 118, (R)-N-(3-(2-methylpyrrolidine-1-carbonyl)phenyl)-4-(trifluoromethyl)benzenesulfonamide]
> 100	Cc1cc(S(=O)(=O)Nc2cccc(C(=O)N3CCC[C@H]3C)c2)ccc1Cl [Example 117, (R)-4-chloro-3-methyl-N-(3-(2-methylpyrrolidine-1-carbonyl)phenyl)benzenesulfonamide]
47	Cc1cc(S(=O)(=O)N[C@@H]2CCCN(C(=O)[C@@H]3CCCN3C)C2)c(C)cc1Cl [Example 104, 4-chloro-2,5-dimethyl-N-((R)-1-(methyl-L-prolyl)piperidin-3-yl)benzenesulfonamide]
11	Cc1cc(S(=O)(=O)Nc2cccc(C(=O)N(CC(N)=O)C3CCCC3)c2)c(C)cc1Cl [Example 113, N-(2-amino-2-oxoethyl)-3-((4-chloro-2,5-dimethylphenyl)sulfonamido)-N-cyclopentylbenzamide]
6	O=S(=O)(Nc1csc(-c2ccccc2)n1)c1ccc2c(c1)CCO2 [Example 152, N-(2-phenylthiazol-4-yl)-2,3-dihydrobenzofuran-5-sulfonamide]
18	Cc1cc(S(=O)(=O)Nc2cccc(C(=O)N3CCC[C@@H]3C)c2)c(C)cc1Cl [Example 133, (S)-4-chloro-2,5-dimethyl-N-(3-(2-methylpyrrolidine-1-carbonyl)phenyl)benzenesulfonamide]
> 100	Cc1cc(S(=O)(=O)Nc2csc(-c3ccccc3)n2)ccc1Cl [Example 148, 4-chloro-3-methyl-N-(2-phenylthiazol-4-yl)benzenesulfonamide]
6	Cc1cc(S(=O)(=O)Nc2cccc(C(=O)N3CCCC[C@H]3C)c2)c(C)cc1Cl [Example 9, (R)-4-chloro-2,5-dimethyl-N-(3-(2-methylpiperidine-1-carbonyl)phenyl)benzenesulfonamide]
34	Cc1cc(S(=O)(=O)Nc2cccc(C(=O)NCc3ccccc3)c2)c(C)cc1Cl [Example 11, N-benzyl-3-((4-chloro-2,5-dimethylphenyl)sulfonamido)benzamide]
